Laboratory results: ChEMBL document CHEMBL1909046, “DrugMatrix in vitro pharmacology data”

Experiments:
[1] = target: 5-hydroxytryptamine receptor 2B (Homo sapiens, UniProt P41595); type: cell membranes, CHO-K1, Membrane; settings: cho-k1; note: in other assays of this panel Not Active means under 50% inhibition at 10 µM
Melanocortin receptor 4 = Melanocortin receptor 4 (Homo sapiens, UniProt P32245); type: cell membranes, Membrane; settings: hek293; note: in other assays of this panel Not Active means under 50% inhibition at 10 µM
Melanocortin receptor 4, sequence (P32245 whole entry): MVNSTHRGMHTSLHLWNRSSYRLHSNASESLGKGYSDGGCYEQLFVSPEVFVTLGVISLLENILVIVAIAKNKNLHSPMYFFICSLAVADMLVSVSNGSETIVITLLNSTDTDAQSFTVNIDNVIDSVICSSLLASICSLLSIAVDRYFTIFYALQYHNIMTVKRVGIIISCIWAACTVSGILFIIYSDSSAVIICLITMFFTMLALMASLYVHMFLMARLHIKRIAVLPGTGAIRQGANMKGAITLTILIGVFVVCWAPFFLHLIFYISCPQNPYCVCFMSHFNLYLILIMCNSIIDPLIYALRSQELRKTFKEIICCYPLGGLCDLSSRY

[2] = DRUGMATRIX: Glutamate, AMPA radioligand binding (ligand: [3H] AMPA); type: cell membranes, Rattus norvegicus, Wistar, Cerebral cortex, Membrane; settings: Not Active = under 50% inhibition at 10 µM
Vasopressin V1a receptor = Vasopressin V1a receptor (Homo sapiens, UniProt P37288); type: cell membranes, Membrane; settings: hek293; note: in other assays of this panel Not Active means under 50% inhibition at 10 µM
Vasopressin V1a receptor, sequence (P37288 whole entry): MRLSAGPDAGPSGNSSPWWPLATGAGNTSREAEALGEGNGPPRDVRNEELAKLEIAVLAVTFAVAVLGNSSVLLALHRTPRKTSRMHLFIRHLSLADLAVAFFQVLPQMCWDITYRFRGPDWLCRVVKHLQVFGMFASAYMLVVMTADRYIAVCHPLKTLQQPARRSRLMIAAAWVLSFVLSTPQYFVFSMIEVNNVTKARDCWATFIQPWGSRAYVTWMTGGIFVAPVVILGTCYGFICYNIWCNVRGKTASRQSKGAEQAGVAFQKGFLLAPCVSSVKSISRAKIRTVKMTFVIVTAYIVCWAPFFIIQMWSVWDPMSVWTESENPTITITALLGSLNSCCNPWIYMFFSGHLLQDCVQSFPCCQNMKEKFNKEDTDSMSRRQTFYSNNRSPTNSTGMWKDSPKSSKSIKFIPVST

Acetylcholinesterase = Acetylcholinesterase (Homo sapiens, UniProt P22303); assay: DRUGMATRIX: Acetylcholinesterase enzyme inhibition (substrate: acetylthiocholine); type: cell-based, HEK293; settings: hek293; Not Active = under 50% inhibition at 10 µM
Acetylcholinesterase, sequence (P22303 whole entry): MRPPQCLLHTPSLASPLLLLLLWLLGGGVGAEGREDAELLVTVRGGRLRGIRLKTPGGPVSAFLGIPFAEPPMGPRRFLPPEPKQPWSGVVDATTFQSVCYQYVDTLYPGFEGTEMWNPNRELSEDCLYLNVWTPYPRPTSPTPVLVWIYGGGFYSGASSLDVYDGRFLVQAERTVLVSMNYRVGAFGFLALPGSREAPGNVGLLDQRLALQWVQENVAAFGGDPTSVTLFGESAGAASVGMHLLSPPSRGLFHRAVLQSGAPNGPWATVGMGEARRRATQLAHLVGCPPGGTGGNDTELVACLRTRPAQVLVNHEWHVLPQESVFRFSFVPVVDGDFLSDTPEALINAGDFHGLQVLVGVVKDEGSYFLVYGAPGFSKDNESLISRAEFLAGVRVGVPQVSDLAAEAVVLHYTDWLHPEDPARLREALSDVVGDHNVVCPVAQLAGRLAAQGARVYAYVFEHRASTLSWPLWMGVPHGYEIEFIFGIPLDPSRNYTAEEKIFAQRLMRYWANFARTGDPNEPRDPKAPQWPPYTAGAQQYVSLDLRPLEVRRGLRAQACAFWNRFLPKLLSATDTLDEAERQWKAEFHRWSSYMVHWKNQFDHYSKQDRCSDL

[3] = DRUGMATRIX: Glutamate, NMDA, Agonism radioligand binding (ligand: [3H] CGP-39653); type: cell membranes, Rattus norvegicus, Wistar, Cerebral cortex, Membrane; settings: Not Active = under 50% inhibition at 10 µM
Cannabinoid receptor 1 = Cannabinoid receptor 1 (Homo sapiens, UniProt P21554); type: cell membranes, Membrane; settings: chem-1; note: in other assays of this panel Not Active means under 50% inhibition at 10 µM
Cannabinoid receptor 1, sequence (P21554 whole entry): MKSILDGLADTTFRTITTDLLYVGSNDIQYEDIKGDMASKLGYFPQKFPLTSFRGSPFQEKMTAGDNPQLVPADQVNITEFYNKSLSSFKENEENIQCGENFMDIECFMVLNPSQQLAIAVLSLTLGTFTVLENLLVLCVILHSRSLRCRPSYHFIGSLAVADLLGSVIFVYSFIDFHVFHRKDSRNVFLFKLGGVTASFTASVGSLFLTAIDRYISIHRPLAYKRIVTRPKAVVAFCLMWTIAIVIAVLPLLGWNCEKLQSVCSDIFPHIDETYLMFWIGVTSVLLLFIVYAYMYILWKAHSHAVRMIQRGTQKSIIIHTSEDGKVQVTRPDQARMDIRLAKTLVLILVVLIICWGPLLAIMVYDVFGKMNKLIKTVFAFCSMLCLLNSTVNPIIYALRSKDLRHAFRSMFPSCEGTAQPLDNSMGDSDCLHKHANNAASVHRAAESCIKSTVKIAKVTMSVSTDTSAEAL

[4] = target: T1, C-X-C chemokine receptor type 2 (Homo sapiens, UniProt P25025); type: cell membranes, Membrane; settings: cho-k1; note: in other assays of this panel Not Active means under 50% inhibition at 10 µM
T1 sequence (P25025 whole entry): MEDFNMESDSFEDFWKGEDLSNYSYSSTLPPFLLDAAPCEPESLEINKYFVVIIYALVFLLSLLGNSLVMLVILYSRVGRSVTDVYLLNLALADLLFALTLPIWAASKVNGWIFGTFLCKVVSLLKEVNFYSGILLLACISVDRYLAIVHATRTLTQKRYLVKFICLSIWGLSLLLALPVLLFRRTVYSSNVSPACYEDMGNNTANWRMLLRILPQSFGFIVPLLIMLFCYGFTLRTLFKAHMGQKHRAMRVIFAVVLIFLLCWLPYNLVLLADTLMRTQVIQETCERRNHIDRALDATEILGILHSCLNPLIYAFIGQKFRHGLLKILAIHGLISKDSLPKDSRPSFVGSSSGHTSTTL

[5] = target: T2, C-C chemokine receptor type 4 (Homo sapiens, UniProt P51679); type: cell membranes, Membrane; settings: chem-1; note: in other assays of this panel Not Active means under 50% inhibition at 10 µM
T2 sequence (P51679 whole entry): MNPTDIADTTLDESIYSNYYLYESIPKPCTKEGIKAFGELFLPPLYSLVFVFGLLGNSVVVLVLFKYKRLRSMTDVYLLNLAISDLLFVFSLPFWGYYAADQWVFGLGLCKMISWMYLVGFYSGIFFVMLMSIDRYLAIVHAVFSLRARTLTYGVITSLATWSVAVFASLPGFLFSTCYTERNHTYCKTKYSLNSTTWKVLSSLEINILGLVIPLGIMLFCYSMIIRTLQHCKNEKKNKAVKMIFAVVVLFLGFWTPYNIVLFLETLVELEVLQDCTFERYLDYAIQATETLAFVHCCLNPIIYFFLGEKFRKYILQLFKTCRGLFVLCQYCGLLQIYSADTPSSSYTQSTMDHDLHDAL

[6] = target: T3, Muscarinic acetylcholine receptor M2 (Homo sapiens, UniProt P08172); type: cell membranes, CHO-K1, Membrane; settings: cho-k1; note: in other assays of this panel Not Active means under 50% inhibition at 10 µM
T3 sequence (P08172 whole entry): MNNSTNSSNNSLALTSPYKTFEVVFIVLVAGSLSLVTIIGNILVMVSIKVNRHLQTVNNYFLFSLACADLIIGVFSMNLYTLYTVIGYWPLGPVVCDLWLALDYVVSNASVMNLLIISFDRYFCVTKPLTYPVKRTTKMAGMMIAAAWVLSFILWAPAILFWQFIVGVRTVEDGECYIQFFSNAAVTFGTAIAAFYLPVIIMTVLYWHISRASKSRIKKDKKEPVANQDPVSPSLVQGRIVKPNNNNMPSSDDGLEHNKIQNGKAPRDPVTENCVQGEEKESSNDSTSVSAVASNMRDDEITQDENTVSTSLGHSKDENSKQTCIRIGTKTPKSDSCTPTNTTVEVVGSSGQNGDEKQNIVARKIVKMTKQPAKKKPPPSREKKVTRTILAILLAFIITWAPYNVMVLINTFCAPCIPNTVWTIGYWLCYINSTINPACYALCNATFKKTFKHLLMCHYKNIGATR

[7] = target: Epidermal growth factor receptor (Homo sapiens, UniProt P00533); assay: DRUGMATRIX: Protein Tyrosine Kinase, EGF Receptor enzyme inhibition (substrate: Poly(Glu:Tyr)); type: cell-based, Insect cells; settings: insect cells; Not Active = under 50% inhibition at 10 µM
Epidermal growth factor receptor, sequence (P00533 whole entry): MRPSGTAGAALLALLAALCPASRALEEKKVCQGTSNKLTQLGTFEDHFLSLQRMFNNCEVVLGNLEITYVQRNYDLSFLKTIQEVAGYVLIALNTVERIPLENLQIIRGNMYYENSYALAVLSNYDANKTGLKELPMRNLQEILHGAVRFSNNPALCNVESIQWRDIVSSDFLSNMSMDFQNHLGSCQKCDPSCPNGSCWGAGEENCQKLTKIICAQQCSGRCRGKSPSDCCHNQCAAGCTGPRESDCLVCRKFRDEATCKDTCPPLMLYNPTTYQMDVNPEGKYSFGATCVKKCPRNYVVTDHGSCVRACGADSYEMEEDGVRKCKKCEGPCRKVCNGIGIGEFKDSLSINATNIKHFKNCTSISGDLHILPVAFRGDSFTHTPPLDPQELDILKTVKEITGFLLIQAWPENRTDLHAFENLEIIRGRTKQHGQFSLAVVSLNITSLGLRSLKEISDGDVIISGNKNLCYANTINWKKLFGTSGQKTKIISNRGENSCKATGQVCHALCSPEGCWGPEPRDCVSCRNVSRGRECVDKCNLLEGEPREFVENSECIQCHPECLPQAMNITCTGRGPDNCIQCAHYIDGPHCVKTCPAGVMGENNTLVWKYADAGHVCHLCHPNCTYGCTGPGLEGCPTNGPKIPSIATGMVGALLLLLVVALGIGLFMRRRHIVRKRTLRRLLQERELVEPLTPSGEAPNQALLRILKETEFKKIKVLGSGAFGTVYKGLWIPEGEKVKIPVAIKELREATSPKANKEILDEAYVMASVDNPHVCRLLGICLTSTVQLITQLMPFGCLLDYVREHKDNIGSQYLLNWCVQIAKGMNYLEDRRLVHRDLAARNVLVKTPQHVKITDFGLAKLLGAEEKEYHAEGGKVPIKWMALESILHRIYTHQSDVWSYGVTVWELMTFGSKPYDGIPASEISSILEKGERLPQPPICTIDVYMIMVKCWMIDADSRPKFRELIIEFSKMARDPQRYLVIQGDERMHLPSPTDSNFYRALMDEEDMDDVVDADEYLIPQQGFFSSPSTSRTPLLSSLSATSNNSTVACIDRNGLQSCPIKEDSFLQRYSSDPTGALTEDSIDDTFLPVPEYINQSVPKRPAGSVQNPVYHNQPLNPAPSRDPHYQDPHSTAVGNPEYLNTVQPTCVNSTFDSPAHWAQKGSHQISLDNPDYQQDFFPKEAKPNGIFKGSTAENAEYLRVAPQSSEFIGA

[8] = target: Delta-type opioid receptor (Homo sapiens, UniProt P41143); type: cell membranes, HEK293, Membrane; settings: hek293; note: in other assays of this panel Not Active means under 50% inhibition at 10 µM
Delta-type opioid receptor, sequence (P41143 whole entry): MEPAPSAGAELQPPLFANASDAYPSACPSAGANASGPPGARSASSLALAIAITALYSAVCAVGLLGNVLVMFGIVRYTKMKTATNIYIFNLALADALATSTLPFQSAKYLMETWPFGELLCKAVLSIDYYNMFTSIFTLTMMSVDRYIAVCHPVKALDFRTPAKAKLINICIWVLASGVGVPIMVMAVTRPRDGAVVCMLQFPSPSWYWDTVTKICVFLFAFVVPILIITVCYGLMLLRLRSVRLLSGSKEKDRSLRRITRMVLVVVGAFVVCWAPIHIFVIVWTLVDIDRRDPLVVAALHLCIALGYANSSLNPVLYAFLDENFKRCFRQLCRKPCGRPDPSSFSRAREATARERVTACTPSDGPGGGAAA

[9] = target: C-C chemokine receptor type 2 (Homo sapiens, UniProt P41597); type: cell membranes, CHO-K1, Membrane; settings: cho-k1; note: in other assays of this panel Not Active means under 50% inhibition at 10 µM
[10] = target: Protein phosphatase 3 catalytic subunit alpha (Homo sapiens, UniProt Q08209); parameters: species or system Escherichia coli
[11] = DRUGMATRIX: Nicotinic Acetylcholine radioligand binding (ligand: [125I] Epibatidine); type: cell membranes, Membrane; settings: imr-32; Not Active = under 50% inhibition at 10 µM
[12] = target: Tyrosine-protein kinase Lck (Homo sapiens, UniProt P06239); assay: DRUGMATRIX: Protein Tyrosine Kinase, LCK enzyme inhibition (substrate: Poly(Glu:Tyr)); type: cell-based, Insect cells; settings: insect cells; Not Active = under 50% inhibition at 10 µM
Insulin receptor = Insulin receptor (Rattus norvegicus, UniProt P15127); type: cell membranes, Wistar, Liver, Membrane; note: in other assays of this panel Not Active means under 50% inhibition at 10 µM
Insulin receptor, sequence (P15127 27-759 limits assumed): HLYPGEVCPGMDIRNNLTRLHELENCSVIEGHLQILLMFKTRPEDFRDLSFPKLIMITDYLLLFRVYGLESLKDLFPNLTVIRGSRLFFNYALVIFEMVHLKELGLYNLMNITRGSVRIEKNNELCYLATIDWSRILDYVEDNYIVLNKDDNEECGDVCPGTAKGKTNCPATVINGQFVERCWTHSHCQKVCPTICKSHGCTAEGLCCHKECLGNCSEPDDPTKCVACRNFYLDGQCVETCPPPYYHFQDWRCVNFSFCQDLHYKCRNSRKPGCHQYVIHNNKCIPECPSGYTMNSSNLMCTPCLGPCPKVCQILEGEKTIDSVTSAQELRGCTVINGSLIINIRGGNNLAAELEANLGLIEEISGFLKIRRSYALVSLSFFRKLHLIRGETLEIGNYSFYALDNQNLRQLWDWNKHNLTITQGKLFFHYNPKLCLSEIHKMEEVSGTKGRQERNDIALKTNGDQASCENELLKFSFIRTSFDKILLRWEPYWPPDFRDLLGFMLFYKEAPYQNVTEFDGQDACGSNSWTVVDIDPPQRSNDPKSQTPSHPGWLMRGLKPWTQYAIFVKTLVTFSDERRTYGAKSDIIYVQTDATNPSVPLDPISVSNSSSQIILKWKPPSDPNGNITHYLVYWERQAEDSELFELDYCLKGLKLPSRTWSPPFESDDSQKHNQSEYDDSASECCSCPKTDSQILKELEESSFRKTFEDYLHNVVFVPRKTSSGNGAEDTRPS
Insulin receptor, sequence (P15127 764-1383 limits assumed): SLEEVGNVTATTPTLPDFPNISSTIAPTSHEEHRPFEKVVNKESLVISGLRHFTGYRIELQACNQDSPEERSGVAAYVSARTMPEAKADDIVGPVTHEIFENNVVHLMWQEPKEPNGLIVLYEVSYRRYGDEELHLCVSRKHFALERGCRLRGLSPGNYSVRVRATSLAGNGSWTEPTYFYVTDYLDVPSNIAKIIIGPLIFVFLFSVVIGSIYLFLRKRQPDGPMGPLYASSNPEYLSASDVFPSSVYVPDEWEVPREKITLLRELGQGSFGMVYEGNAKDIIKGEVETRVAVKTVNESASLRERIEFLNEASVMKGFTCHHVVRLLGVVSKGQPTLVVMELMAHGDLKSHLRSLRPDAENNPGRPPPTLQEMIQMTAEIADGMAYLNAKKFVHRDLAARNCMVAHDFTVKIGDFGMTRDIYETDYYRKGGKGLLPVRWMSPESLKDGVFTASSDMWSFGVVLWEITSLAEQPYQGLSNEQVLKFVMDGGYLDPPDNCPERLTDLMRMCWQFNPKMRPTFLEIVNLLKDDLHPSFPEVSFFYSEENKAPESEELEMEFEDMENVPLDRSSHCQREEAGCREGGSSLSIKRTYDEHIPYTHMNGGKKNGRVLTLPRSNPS

Thromboxane-A synthase = target: T4, Thromboxane-A synthase (Homo sapiens, UniProt P24557); assay: biochemical; type: tissue-based, Platelet; settings: platelet
T4 sequence (P24557 whole entry): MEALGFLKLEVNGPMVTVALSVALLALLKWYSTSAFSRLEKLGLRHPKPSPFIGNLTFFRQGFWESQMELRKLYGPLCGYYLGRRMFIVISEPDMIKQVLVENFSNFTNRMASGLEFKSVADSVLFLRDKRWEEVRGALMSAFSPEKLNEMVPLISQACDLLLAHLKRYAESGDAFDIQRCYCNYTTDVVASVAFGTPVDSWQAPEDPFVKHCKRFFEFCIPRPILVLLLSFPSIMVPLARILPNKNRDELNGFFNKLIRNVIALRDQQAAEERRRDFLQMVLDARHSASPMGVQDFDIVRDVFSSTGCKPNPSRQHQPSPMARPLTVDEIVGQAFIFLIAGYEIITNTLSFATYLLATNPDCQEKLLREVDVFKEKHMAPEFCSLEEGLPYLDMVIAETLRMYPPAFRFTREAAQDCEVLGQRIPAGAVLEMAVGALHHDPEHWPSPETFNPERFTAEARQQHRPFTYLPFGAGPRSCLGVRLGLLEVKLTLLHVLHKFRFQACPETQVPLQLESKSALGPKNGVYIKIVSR

[13] = target: 5-hydroxytryptamine receptor 6 (Homo sapiens, UniProt P50406); type: cell membranes, HeLa, Membrane; settings: hela; note: in other assays of this panel Not Active means under 50% inhibition at 10 µM

CN[C@@H]1[C@@H](O)[C@@H](O[C@@H]2[C@@H](O)[C@H](O[C@H]3OC(CN)=CC[C@H]3N)[C@@H](N)C[C@H]2N)OC[C@]1(C)O [SISOMICIN]
Not Active: IC50 [1] | IC50 (Melanocortin receptor 4) | IC50 [2] | Ki [2] | IC50 (Vasopressin V1a receptor) | IC50 (Acetylcholinesterase) | IC50 [3] | Ki [3] | IC50 (Cannabinoid receptor 1) | IC50 [4] | IC50 [5] | IC50 [6] | IC50 [7] | IC50 [8] | IC50 [9] | IC50 [10] | IC50 [11] | Ki [11] | IC50 [12] | IC50 (Insulin receptor) | IC50 (Thromboxane-A synthase) | IC50 [13]

CC(=O)S[C@@H]1CC2=CC(=O)CC[C@]2(C)[C@H]2CC[C@@]3(C)[C@@H](CC[C@@]34CCC(=O)O4)[C@H]12 [SPIRONOLACTONE]
Not Active: IC50 [1] | IC50 (Melanocortin receptor 4) | IC50 [2] | Ki [2] | IC50 (Vasopressin V1a receptor) | IC50 (Acetylcholinesterase) | IC50 [3] | Ki [3] | IC50 (Cannabinoid receptor 1) | IC50 [4] | IC50 [5] | IC50 [6] | IC50 [7] | IC50 [8] | IC50 [9] | IC50 [10] | IC50 [11] | Ki [11] | IC50 [12] | IC50 (Insulin receptor) | IC50 (Thromboxane-A synthase) | IC50 [13]

C[C@]12Cc3c[nH]nc3C[C@@H]1CC[C@@H]1[C@@H]2CC[C@@]2(C)[C@H]1CC[C@]2(C)O [STANOZOLOL]
Not Active: IC50 [1] | IC50 (Melanocortin receptor 4) | IC50 [2] | Ki [2] | IC50 (Vasopressin V1a receptor) | IC50 (Acetylcholinesterase) | IC50 [3] | Ki [3] | IC50 (Cannabinoid receptor 1) | IC50 [4] | IC50 [5] | IC50 [6] | IC50 [7] | IC50 [8] | IC50 [9] | IC50 [10] | IC50 [11] | Ki [11] | IC50 [12] | IC50 (Insulin receptor) | IC50 (Thromboxane-A synthase) | IC50 [13]

CN(N=O)C(=O)N[C@@H](C=O)[C@@H](O)[C@H](O)[C@H](O)CO [STREPTOZOCIN]
Not Active: IC50 [1] | IC50 (Melanocortin receptor 4) | IC50 [2] | Ki [2] | IC50 (Vasopressin V1a receptor) | IC50 (Acetylcholinesterase) | IC50 [3] | Ki [3] | IC50 (Cannabinoid receptor 1) | IC50 [4] | IC50 [5] | IC50 [6] | IC50 [7] | IC50 [8] | IC50 [9] | IC50 [10] | IC50 [11] | Ki [11] | IC50 [12] | IC50 (Insulin receptor) | IC50 (Thromboxane-A synthase) | IC50 [13]

Cc1cc(NS(=O)(=O)c2ccc(N)cc2)no1 [SULFAMETHOXAZOLE]
Not Active: IC50 [1] | IC50 (Melanocortin receptor 4) | IC50 [2] | Ki [2] | IC50 (Vasopressin V1a receptor) | IC50 (Acetylcholinesterase) | IC50 [3] | Ki [3] | IC50 (Cannabinoid receptor 1) | IC50 [4] | IC50 [5] | IC50 [6] | IC50 [7] | IC50 [8] | IC50 [9] | IC50 [10] | IC50 [11] | Ki [11] | IC50 [12] | IC50 (Insulin receptor) | IC50 (Thromboxane-A synthase) | IC50 [13]

Nc1ccc(S(N)(=O)=O)cc1 [SULFANILAMIDE]
Not Active: IC50 [1] | IC50 (Melanocortin receptor 4) | IC50 [2] | Ki [2] | IC50 (Vasopressin V1a receptor) | IC50 (Acetylcholinesterase) | IC50 [3] | Ki [3] | IC50 (Cannabinoid receptor 1) | IC50 [4] | IC50 [5] | IC50 [6] | IC50 [7] | IC50 [8] | IC50 [9] | IC50 [10] | IC50 [11] | Ki [11] | IC50 [12] | IC50 (Insulin receptor) | IC50 (Thromboxane-A synthase) | IC50 [13]

Nc1ccc(S(=O)(=O)Nc2ccnn2-c2ccccc2)cc1 [SULFAPHENAZOLE]
Not Active: IC50 [1] | IC50 (Melanocortin receptor 4) | IC50 [2] | Ki [2] | IC50 (Vasopressin V1a receptor) | IC50 (Acetylcholinesterase) | IC50 [3] | Ki [3] | IC50 (Cannabinoid receptor 1) | IC50 [4] | IC50 [5] | IC50 [6] | IC50 [7] | IC50 [8] | IC50 [9] | IC50 [10] | IC50 [11] | Ki [11] | IC50 [12] | IC50 (Insulin receptor) | IC50 (Thromboxane-A synthase) | IC50 [13]
